According to EP4745134A1 (Jiangsu Yahong Meditech Co., Ltd., priority 2023, dated 2025):

How the values were obtained:
[1] = biological target: PRMT5-MTA (Homo sapiens, UniProt O14744); assay: Enzymatic inhibitory activity against PRMT5-MTA (AlphaScreen); type: biochemical; conditions: read-out: IC50
How it was run: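 PRMT5/[…] (1 nM) was preincubated for 30 min at room temperature with 1 µM […] and 2.5 µM SAM, then exposed to compound (10-point, 3-fold from 1000 nM) for 15 min at 23 °C. Histone H4 substrate (5 nM) was added and reacted for 45 min at 23 °C. Symmetric dimethyl-R3 H4 was detected by AlphaScreen and IC50 calculated.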

[2] = system: HCT116 MTAP KO cells; assay: Inhibitory activity against cell proliferation (CellTiter Glo, 6 days), HCT116 MTAP KO; type: cell-based; conditions: for IC50: Homo sapiens, HCT-116, 144 h, HCT116 MTAP KO cells, 6 days, CellTiter Glo, read-out: HCT116 MTAP KO IC50; for Selectivity HCT 116-WT/ HCT116 MTAP KO: ratio of IC50 HCT116-WT / HCT116 MTAP KO
How it was run: (§1)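 Viability IC50s come from CellTiter Glo luminescence after 6 days' exposure to compound (8 concentrations, 4-fold steps, top 10000 nM), relative to DMSO wells. Cells were MTAP-KO or WT HCT116, seeded at 250 per well in McCoy's 5A with 10% FBS and incubated overnight before dosing.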

[3] = system: HCT116-WT cells; assay: Inhibitory activity against cell proliferation (CellTiter Glo, 6 days), HCT116-WT; type: cell-based; conditions: 144 h, HCT116-WT cells, 6 days, CellTiter Glo; read-out: HCT116-WT IC50
How it was run: as §1

PRMT5-MTA, sequence (O14744 whole entry): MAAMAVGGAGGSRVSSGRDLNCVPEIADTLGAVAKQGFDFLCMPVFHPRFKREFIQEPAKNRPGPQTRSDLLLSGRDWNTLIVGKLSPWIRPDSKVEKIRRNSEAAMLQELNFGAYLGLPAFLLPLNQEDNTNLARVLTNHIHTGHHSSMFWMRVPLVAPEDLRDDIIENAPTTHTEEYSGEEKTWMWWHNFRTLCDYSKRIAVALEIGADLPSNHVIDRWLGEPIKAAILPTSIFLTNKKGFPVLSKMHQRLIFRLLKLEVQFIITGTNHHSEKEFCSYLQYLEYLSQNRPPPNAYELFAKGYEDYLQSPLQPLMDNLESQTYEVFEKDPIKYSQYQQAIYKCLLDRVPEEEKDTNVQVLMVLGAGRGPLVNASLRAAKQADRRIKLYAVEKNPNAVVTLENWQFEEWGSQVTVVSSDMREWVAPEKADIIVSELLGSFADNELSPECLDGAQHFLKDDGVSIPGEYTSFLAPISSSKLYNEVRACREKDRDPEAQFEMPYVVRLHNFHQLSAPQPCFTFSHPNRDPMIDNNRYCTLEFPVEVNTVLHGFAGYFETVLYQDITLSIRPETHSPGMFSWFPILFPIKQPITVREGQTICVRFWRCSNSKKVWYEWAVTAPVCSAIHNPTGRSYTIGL
PRMT5-MTA, sequence (Q9BQA1 whole entry partner): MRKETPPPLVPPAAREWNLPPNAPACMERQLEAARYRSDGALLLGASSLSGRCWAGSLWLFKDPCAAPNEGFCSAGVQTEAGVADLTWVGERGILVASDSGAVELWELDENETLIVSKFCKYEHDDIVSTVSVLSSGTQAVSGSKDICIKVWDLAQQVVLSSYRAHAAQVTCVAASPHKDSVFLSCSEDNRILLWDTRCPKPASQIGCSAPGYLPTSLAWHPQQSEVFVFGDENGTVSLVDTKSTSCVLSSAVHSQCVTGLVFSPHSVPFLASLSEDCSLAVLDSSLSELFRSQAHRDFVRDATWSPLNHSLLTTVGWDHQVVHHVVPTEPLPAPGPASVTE

| SMILES | IC50 [1] [nM] | IC50 [2] [nM] | Selectivity HCT 116-WT/ HCT116 MTAP KO [2] | IC50 [3] [nM] |
| --- | --- | --- | --- | --- |
| Cc1cc2cc(C(=O)N(Cc3ccc(C(F)(F)F)cn3)N(C)c3ncc(C(F)(F)F)cc3F)ccc2nc1N [Example 102, 2-amino-N'-(3-fluoro-5-(trifluoromethyl)pyridin-2-yl)-N',3-dimethyl-N-((5-(trifluoromethyl)pyridin-2-yl)methyl)quinoline-6-carbohydrazide] | 1.7 | 348 | 10.19 | 3550 |
| Cc1cc2cc(C(=O)N(Cc3ccc(C(F)(F)F)cn3)N(C)c3ncc(OC(F)F)cn3)ccc2nc1N [Example 57, 2-amino-N'-(5-(difluoromethoxy)pyrimidin-2-yl)-N',3-dimethyl-N-((5-(trifluoromethyl)pyridin-2-yl)methyl)quinoline-6-carbohydrazide] | 1.9 | 490 | 11.51 | 5640 |
| Cc1cc2cc(C(=O)N(Cc3ccc(-c4cccnc4)cc3F)N(C)c3ncccn3)ccc2nc1N [Example 177, 2-amino-N-(2-fluoro-4-(pyridin-3-yl)benzyl)-N',3-dimethyl-N'-(pyrimidin-2-yl)qu inoline-6-carbohydrazide] | 1.1 | 30 | 31.20 | 936 |
| Cc1cc2cc(C(=O)N(Cc3ccc(-c4cnc(C(F)(F)F)s4)cn3)N(C)c3ncccn3)ccc2nc1N [Example 244, 2-amino-N',3-dimethyl-N'-(pyrimidin-2-yl)-N-((5-(2-(trifluoromethyl)thiazol-5-yl)pyridin-2-yl)methyl)quinoline-6-carbohydrazide] | 4.2 | 41 | 14.17 | 581 |
| Cc1cc2cc(C(=O)N(Cc3ccc(C#N)cn3)N(C)c3ncccn3)ccc2nc1N [Example 94, 2-amino-N-((5-cyanopyridin-2-yl)methyl)-N',3-dimethyl-N'-(pyrimidin-2-yl) quinoline-6-carbohydrazide] | 2.3 | 130 | 23.60 | 3070 |
| Cc1cc2cc(C(=O)N(Cc3ccc(-c4cnn(CC(F)(F)F)c4)cn3)N(C)c3ncccn3)ccc2nc1N [Example 181, 2-amino-N',3-dimethyl-N'-(pyrimidin-2-yl)-N-((5-(1-(2,2,2-trifluoroethyl)-1H-pyrazol-4-yl)pyridin-2-yl)methyl)quinoline-6-carbohydrazide] | 0.69 | 36 | 24.03 | 865 |
| Cc1cc2cc(C(=O)N(Cc3ccc(-c4cnsc4)cn3)N(C)c3ncccn3)ccc2nc1N [Example 157, 2-amino-N-((5-(isothiazol-4-yl)pyridin-2-yl)methyl)-N',3-dimethyl-N'-(pyrimidin-2-yl)quinoline-6-carbohydrazide] | 6.9 | 14 | 25.79 | 361 |
| Cc1cc2nc(N)c3cnn(C)c3c2cc1C(=O)N1CC(C)CN1c1cccc(C#N)n1 (centres unmarked) [Example 365, 6-(2-(4-amino-1,7-dimethyl-1H-pyrazolo [4,3-c]quinoline-8-formyl)-4-methylpyrazolidin-1-yl)pyridinecarbonitrile] | 3.2 | 35 | 48.37 | 1690 |
| Cc1cc2nc(N)c3cnn(C)c3c2cc1C(=O)N1CCCN1c1ccc(C(F)(F)F)cn1 [Example 338, (4-amino-1,7-dimethyl-1H-pyrazolo[4,3-c]quinolin-8-yl)(2-(5-(trifluoromethyl)pyridin-2-yl)pyrazolidin-1-yl)methanone] | 2.8 | 153 | 24.64 | 3770 |
| Cc1cc2cc(C(=O)N(Cc3ccc(C4CCOCC4)cn3)N(C)c3ncccn3)ccc2nc1N [Example 218, 2-amino-N',3-dimethyl-N'-(pyrimidin-2-yl)-N-((5-(tetrahydro-2H-pyran-4-yl)pyridin-2-yl)methyl)quinoline-6-carbohydrazide] | 7 | 291 | 10.56 | 3070 |
| Cc1cc2cc(C(=O)N(Cc3ccc(Br)cc3F)N(C)c3ncccn3)ccc2nc1N [Example 84, 2-amino-N-(4-bromo-2-fluorobenzyl)-N', 3-dimethyl-N'-(pyrimidin-2-yl)quinoline-6-carbohydrazide] | 3.4 | 58 | 28.17 | 1630 |
